Data reported in patent US9334256B2, “Agents and methods for treating ischemic and other diseases” (NoNO INC., priority 2011, dated 2016).
Entries after “also recorded” stand apart in the source; their conditions may differ.

Tests used:
[1] = test system: rats subjected to lateral FPI; assay: Distance traveled and activity post FPI; assay type: in vivo, rat; settings: FIG. 4B
Description: (§1) Thus, M21 and TRPM7 inhibitors are effective treatments to reduce the damaging effects of neurotrauma, including concussions.

neurons = assay: Sublethal neuronal stretch injury model, survival by PI fluorescence; assay type: cell-based; settings: applied 1 hour after stretch injury, PI fluorescence 24 hours after; FIG. 3
Experimental: Likewise, TRPM7 inhibitors are also expected to provide neuroprotection to other types of brain injuries. […] This model is described in Arundine et al, (J. Neurosci, 2004:8106-23). TRPM7 inhibitors such as M21 were applied 1 hour after stretch injury and cells were assessed for survival by PI fluorescence 24 hours after the injury. […] Thus, this assay can be predictive of in vivo efficacy.

[2] = test system: rats subjected to lateral FPI; assay: Rotarod performance after lateral FPI; assay type: in vivo, rat; settings: FIG. 4A
Description: as §1

[3] = test system: neurons, hepatocytes, cardiomyocytes, retina; assay: Survival after anoxia in cells and tissues; assay type: cell-based; settings: summary statement
TRPM7 = target: T1, TRPM7 (Mus musculus, UniProt Q923J1); assay: PI uptake cell death assay in TRPM7-expressing HEK-293 cells (type of assay from Example 1); assay type: cell-based, murine; settings: Table X
T1 construct: expressed in transfected cells; host or cells: HEK-293 tSA (HEK-293T) cells, transient transfection with Lipofectamine 2000
T1 sequence (Q923J1 whole entry): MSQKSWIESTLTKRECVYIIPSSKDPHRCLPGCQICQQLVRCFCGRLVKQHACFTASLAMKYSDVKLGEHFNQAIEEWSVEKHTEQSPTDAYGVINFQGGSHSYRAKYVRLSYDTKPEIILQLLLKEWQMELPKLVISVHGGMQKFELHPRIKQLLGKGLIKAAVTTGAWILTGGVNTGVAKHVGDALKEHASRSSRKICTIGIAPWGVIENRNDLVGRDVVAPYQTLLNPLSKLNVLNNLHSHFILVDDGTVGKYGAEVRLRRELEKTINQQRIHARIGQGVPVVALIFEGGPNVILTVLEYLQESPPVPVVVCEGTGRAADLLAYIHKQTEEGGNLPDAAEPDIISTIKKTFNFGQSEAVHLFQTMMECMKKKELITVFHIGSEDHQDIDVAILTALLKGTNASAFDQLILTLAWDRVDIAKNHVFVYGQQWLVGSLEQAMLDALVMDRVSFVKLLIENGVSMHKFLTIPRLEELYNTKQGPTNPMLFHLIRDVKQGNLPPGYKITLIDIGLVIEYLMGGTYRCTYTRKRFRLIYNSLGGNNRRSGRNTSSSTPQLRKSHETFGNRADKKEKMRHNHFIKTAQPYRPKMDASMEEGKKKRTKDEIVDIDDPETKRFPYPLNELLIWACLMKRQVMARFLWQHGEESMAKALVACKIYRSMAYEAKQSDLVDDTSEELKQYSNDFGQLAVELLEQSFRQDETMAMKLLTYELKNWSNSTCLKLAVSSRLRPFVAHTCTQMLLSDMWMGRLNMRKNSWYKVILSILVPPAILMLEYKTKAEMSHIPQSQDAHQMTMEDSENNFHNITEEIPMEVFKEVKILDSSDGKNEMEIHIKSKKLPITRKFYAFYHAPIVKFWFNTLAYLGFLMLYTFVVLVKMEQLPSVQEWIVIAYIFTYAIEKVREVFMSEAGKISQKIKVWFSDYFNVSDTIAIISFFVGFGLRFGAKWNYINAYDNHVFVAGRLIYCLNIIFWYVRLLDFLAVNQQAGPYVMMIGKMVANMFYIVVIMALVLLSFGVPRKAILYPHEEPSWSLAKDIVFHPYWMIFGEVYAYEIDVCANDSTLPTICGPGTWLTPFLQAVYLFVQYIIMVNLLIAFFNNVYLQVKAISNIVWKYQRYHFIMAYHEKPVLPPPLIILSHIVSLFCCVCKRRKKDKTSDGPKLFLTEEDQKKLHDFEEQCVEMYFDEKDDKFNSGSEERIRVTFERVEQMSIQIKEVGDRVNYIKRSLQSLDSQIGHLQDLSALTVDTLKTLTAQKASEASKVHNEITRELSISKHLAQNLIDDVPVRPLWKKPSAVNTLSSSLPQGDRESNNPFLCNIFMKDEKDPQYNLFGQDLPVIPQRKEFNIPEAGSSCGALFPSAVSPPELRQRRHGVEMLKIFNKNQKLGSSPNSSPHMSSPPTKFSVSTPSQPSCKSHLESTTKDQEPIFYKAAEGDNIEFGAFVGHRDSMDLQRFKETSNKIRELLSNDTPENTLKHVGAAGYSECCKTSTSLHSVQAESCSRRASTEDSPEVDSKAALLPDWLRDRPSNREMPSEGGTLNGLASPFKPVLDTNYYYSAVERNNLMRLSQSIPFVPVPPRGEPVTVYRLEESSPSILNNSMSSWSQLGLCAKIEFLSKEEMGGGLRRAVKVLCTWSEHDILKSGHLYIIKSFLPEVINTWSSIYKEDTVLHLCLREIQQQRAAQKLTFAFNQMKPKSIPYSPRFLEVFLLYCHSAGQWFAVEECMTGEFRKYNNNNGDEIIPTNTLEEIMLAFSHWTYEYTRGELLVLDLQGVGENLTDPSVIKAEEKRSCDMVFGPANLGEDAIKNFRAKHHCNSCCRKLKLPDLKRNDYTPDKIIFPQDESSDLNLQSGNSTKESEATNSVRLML

Cc1c(Cc2ccc(Cl)c(Cl)c2)c(=O)oc2cc(O)ccc12 [Compound M21]
distance traveled and activity post FPI [1]: comparable to uninjured animals | protection from cell death after stretch injury (neurons): can protect neurons from cell death due to stretch injuries; also recorded: increased protection from cell death | time able to maintain balance on the Rotarod relative to injured animals treated with vehicle alone [2]: twice the time | Rotarod performance (mean latency) ([2]; first day post injury, compared to FPI+Vehicle): near wild type levels of performance | survival after anoxia [3]: broadly effective in increasing survival after anoxia in various tissues | IC50 (TRPM7): 4.97 µM
